melting point [°C] | Structure (SMILES)
214 to 215 | O=C(Nc1ccc2nc(CN3CCOCC3)ccc2c1)c1ccc(-c2ccccc2)cc1
224 to 226 | NS(=O)(=O)c1ccc(-c2cnn(-c3ccc(F)c(F)c3)c(=O)c2Oc2ccc(F)cc2)cc1F
195 to 197 | O=C(O)Cc1ccc(OCc2ccc(F)cc2C(=O)O)cc1
136 to 138 | CCC(=O)C1=C(O)CC(c2cccc(Oc3ccc(S(C)(=O)=O)cc3)c2)CC1=O (stereo not drawn)
86 to 88 | CCOP(=O)(Cc1ccc2nc(-c3ccc(OC)cc3)oc2c1)OCC
235 to 250 | O=C(O)c1sc(-c2ccc(Cl)cc2)nc1C(F)(F)F
130 to 131 | N#CCCNC(=O)c1cccc(-c2ccc3c(c2)C(c2ccc(Cl)cc2Cl)CO3)c1 (stereo not drawn)
91 to 93 | CSc1cc2c(cc1C(F)(F)F)N(C(=O)Nc1cccc(C(=O)NCCN(C)C)c1)CC2
203 to 204 | CCc1ccccc1NC(=O)c1ccc(CN2C(=O)C3(COc4cc5c(cc43)CCO5)c3ccccc32)cc1 (stereo not drawn)
159 to 161 | CNc1ccc(N2C(=O)c3ccccc3C2=O)c(C)c1
86.2 to 87 | COCCOC1(S(C)=O)C=CC=C(C(=O)c2cnoc2C2CC2)C1Br (stereo not drawn)
79 to 82 | N#Cc1ccc(-c2ccc(OCCCCCCC(=O)NO)cc2)cc1
96 to 99 | CN(C)C(=O)C1(n2ccc(-c3ccccc3)n2)CC1
238 to 239 | CN(C)S(=O)(=O)c1cc(S(=O)(=O)N(C)C)c(C(Cl)=C(Cl)Cl)cc1N
132 to 133 | Cc1cc(-c2cc(COS(C)(=O)=O)c(=O)n(Cc3ccc(Cl)cc3)n2)ccc1F
276 to 277 | O=C(O)c1ccccc1S(=O)(=O)c1cc(Cl)ccc1C(=O)O
98 to 100 | CC(=O)Nc1ccn([C@@H]2C[C@H](OC(C)=O)[C@@H](O)[C@H]2O)c(=O)n1 (racemic)
100 to 101 | CC(C)(C)OC(=O)Nc1c(F)cccc1[N+](=O)[O-]
78 | CSC(=C[N+](=O)[O-])NCCCCc1ccccn1
130 to 132 | CNC(N)=C(CCSCc1csc(CN(C)C)n1)[N+](=O)[O-]
235 to 236 | O=C(NCCc1cccc(-c2nc(=O)c3ccccc3s2)n1)Nc1ccccc1
111 to 112 | Oc1cc(-c2c3ccccc3c(Br)c3sc4ccccc4c23)ccc1Br

melting point [°C] | Structure (SMILES)
132 to 133 | C=C[C@H]1CC(C(=O)OC)=C[C@@H](OC(C)C)[C@@H]1NC(C)=O
134 | CCNC(=O)c1ccc(-c2ccc3c(c2)C(Nc2ccc(Cl)cc2)CC(C)N3C(C)=O)cc1 (stereo not drawn)
193 to 194 | COc1ccc(C(NCC(c2ccccc2)c2ccccc2)c2cccc(Nc3c(N)c(=O)c3=O)c2)cc1 (stereo not drawn)
71 to 73 | O=C(NCCCO)c1ccc[nH]1
> 250 | NS(=O)(=O)c1cncc(-c2cn(-c3cc(C(F)(F)F)cc(-c4ccc(C(F)(F)F)cc4)n3)cn2)c1
101 to 102 | C[C@@H](O[Si](C)(C)C(C)(C)C)[C@@H]1C(=O)N[C@@H]1S(C)(=O)=O
45 | CC(C)(C)COC1CCC(=O)N1 (stereo not drawn)
174 to 175 | NC(=O)c1nnn(Cc2ccc(Cl)c(C(Cl)=C(Cl)Cl)c2)c1N
196 to 197 | CCOC(=O)c1ncc2[nH]c3cccc(OC4CCC4)c3c2c1COC
> 260 | NC1=C([N+](=O)[O-])C(=O)NC1=Cc1ccccc1
218 to 219 | Cc1ccc2nc(-n3nc4c(c3O)-c3ccccc3CC4)sc2c1
172 to 174 | CC(=O)NNc1ccc(N=C=S)cc1
146 to 148 | CCC[C@H]1C(=O)N(S(=O)(=O)c2cccc3ccccc23)[C@H]2CCN(S(=O)(=O)CCCN3CCOCC3)[C@H]12 (relative stereo)
165 to 167 | O=C(c1cccc(C(F)(F)F)c1)N(CCCCn1ccnc1)C1=Nc2cccc3cccc1c23
175 to 176 | CCOC(=O)C1=C(COC2CCNCC2)NC(C)=C(C(=O)OC)C1c1ccccc1Cl (stereo not drawn)
88 to 93 | COc1ccc(CCNC(=O)CN(c2ccccc2)c2ccccc2)cc1OC
97 to 99 | CCOC(=O)C(=CNc1ccc(F)cc1F)C(=O)c1c(F)c(F)c(F)c(F)c1F
141 to 142 | COc1cc(Cn2c(=S)sc3ccccc32)cc(OC)c1O
84 to 85 | COCCNC(=O)c1cc(-c2cccc3cc(Cc4cc(F)cc(Cl)c4)sc23)ccc1F
119 to 120 | CC(=O)N(CCCCCC(=O)O)C(c1ccccc1)c1ccccc1
165 to 167 | Cn1c(C(F)(F)F)cc(=O)n(-c2cc(OC3COC(=O)O3)c(Cl)cc2F)c1=O (stereo not drawn)
125 to 129 | O=C1N(CCN2CCCC2)CCN1c1ccc(-c2nnc(CSCCOc3ccccc3)o2)cc1

melting point [°C] | Structure (SMILES)
60 | COc1ccc(CN(CCN(C)CCCCCCNC(=O)NCCSCc2csc(NC(=N)N)n2)c2ccccn2)cc1
169 to 171 | CCCn1c(=O)c2[nH]c(C34CC5CC(CC(C5)C3)C4)nc2n(CCC)c1=O
61 to 62 | CC(C)CCCC(C)Cc1cncn1Cc1ccccc1 (stereo not drawn)
132 | CC(CN1CCCC1)N1c2ccccc2Sc2ccc(C(=O)NC3CCCC3)cc21 (racemic)
305 to 310 | Cc1c(Cl)c(=O)[nH][nH]c1=O
137 to 138 | CCOCn1c(Oc2ccccc2)c(C(C)C)c(=O)[nH]c1=O
> 300 | Cn1cnc2nc(-c3ccc(Cl)cn3)nn2c1=S
129 to 133 | CCOC(=O)C(C#N)=CNNCC(=Cc1ccccc1)c1ccccc1
144 | O=C(Cc1ccc(F)cc1)NC1CCN(Cc2ccc(Br)cc2)CC1
171 to 172 | O=C(Cc1noc2ccccc12)NS(=O)(=O)c1ccccc1
190 to 192 | CC(C)(C)OC(=O)Nc1ccccc1NC(=O)c1ccc(C(=O)O)cc1
178 to 180 | NS(=O)(=O)c1ccccc1C=C1CCOC1=O
169 | N#Cc1ccc(NC(=O)c2c(O)ccc3ccccc23)c(OC(F)(F)F)c1
137 | Cc1cc(-n2nc(C(F)(F)F)cc2-c2ccc(-c3ccco3)cc2)ccc1S(N)(=O)=O
239 to 241 | CS(=O)(=O)c1ccc(-c2c(-c3ccccc3)[nH]c3ccccc23)cc1
223 to 226 | COc1ccc2nc(NC(=O)C(CC3CCCC3)c3ccc(S(=O)(=O)Nc4ccccc4)cc3)sc2n1 (stereo not drawn)
110 to 112 | O=C1CCC(=O)N1Sc1ccccc1
135 to 138 | Cc1noc(NS(=O)(=O)c2ccc(NC(=O)CN)cc2-c2ccc(CC(C)C)cc2)c1C
162 to 164 | CC(c1ccc(F)cc1)n1ncc(-c2ccc(S(C)(=O)=O)cc2)c(-c2ccc(F)cc2)c1=O (stereo not drawn)
94.5 to 95.5 | CCOC(=O)C(NC(=O)CNC(=O)OCc1ccccc1)C(=O)OCC

Structure (SMILES) | melting point [°C]
COc1cnc(CCl)nc1O | 87
CN1CCN(c2cc3nc(C(C)(C)C)sc3cc2N=C=O)CC1 | 124 to 126
COc1cc(C2C3=C(COC3=O)Nc3ccc4cc(C)[nH]c4c32)cc(OC)c1OC (stereo not drawn) | 280 to 281
CN1CCC2(C)c3cc(OC(=O)OC(C)(C)C)cc(Br)c3N(C)C12 (stereo not drawn) | 146 to 148

From a melting point compilation (Tetko et al.; mined from patent text by program, amines drawn as free bases though some values may be those of a salt)
